Test results from patent US8673587B2, “Methods for identifying allosteric and other novel acyl-coenzyme A:cholesterol acyltransferase inhibitors” (Trustees of Dartmouth College, priority 2010, dated 2014).

Key:
[1] = target: T1, histidine-tagged recombinant human ACAT1 (Homo sapiens, UniProt P35610, M1L); assay: Steroid (pregnenolone/DHEA/E2) esterification in mixed micelles, ACAT1 as enzyme source; type: biochemical; settings: for ACAT1 substrate activity: 1 μM [3H]-steroid
T1 construct: hACAT-1 cDNA (nucleotide residues 1397-3046, a total of 550 amino acids); made in house; partially purified on a nickel column
T1 sequence (P35610 1-550 M1L): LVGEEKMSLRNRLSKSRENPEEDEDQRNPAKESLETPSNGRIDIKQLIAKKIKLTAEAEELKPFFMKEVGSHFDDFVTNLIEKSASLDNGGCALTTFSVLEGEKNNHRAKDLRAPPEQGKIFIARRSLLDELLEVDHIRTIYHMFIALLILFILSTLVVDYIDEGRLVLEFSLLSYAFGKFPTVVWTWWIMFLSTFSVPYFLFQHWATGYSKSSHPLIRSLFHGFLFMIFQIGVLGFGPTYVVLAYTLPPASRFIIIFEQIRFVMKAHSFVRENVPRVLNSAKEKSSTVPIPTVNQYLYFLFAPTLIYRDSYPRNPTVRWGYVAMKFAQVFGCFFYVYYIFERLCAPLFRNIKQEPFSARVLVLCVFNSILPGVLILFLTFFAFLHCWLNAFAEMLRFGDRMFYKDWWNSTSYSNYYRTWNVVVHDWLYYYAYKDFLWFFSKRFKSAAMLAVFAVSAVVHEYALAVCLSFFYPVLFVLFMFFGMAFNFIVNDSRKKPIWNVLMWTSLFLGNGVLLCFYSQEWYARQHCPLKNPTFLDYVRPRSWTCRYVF
Description: (§1) The method of the present invention was developed in experiments using a mixed micelle enzyme assay system. […] A candidate ACAT inhibitor is an allosteric inhibitor if it is shown in the method of the present invention to inhibit cholesterol-dependent pregnenolone esterification but not to inhibit the basal pregnenolone esterification when cholesterol is absent in the assay mixture. […] In the assay system of the present invention, the source of ACAT was histidine-tagged recombinant human ACAT1 or human ACAT2, stably expressed in Chinese hamster ovary (CHO) cells that lack endogenous ACAT activity. However, one of skill in the art could employ other suitable mammalian cell systems as needed. The enzyme preparations used in the present method were partially purified through the use of nickel column chromatography, as described previously (Liu et al. 2005. Biochem. J. 391:389-397), using cells that stably expressing histidine-tagged recombinant human ACAT1 or human ACAT2 as the enzyme source.
(§2) In developing the method of the present invention, a series of experiments was performed. Pregnenolone is one compound that contains the classical A, B, C, D steroid rings as well as a 3 beta-OH moiety. Based on its structure, pregnenolone may be an ACAT substrate. However, this possibility had not previously been tested experimentally. In the present invention, the activity of pregnenolone was tested by using radiolabeled pregnenolone ([^3H]-pregnenolone) in a mixed micelle enzyme assay mixture that contained the detergent taurocholate (or CHAPS), phosphatidylcholine, and oleyl-coenzyme A bound to bovine serum albumin (BSA). The enzyme used was histidine-tagged human ACAT1 or human ACAT2. The esterification of pregnenolone (i.e., formation of pregnenolone oleate) was monitored by performing lipid extraction to isolate [^3H]-pregnenolone oleate and [^3H]-pregnenolone. [^3H]-pregnenolone oleate was then separated from [^3H]-pregnenolone by using conventional thin-layer chromatography. Levels of [^3H]-pregnenolone oleate formed was measured using a scintillation counter. […] Thus, using ACAT1 as the enzyme source, the esterification of DHEA was examined (FIG. 1C).
A pregnenolone substrate saturation curve was then constructed, with or without addition of cholesterol to the assay mixture, using ACAT1 as the enzyme source (FIG. 2A). […] Then, a DHEA substrate saturation curve was constructed, with cholesterol present.
Further experiments were performed to examine the effect of adding various non-oxysterols, at a concentration of 0.32 mM, on pregnenolone esterification in vitro, with ACAT1 as the enzyme source.
(§3) To assay the enzyme, the pregnenolone/detergent/PC micelles and the cholesterol/detergent/PC micelles were prepared individually as follows: the radiolabeled pregnenolone/PC mixture or the cholesterol/PC mixture was prepared as described previously (Shi et al. 1989. Biochim. Biophys. Acta 982:187-195) and lyophilized to remove residual organic solvents. After lyophilization, the detergent sodium taurocholate (or other detergent such as CHAPS) in Buffer A was added to reach a final concentration of 10 mg/ml. The mixture was purged with nitrogen, followed by sonication until this mixture was clear. The pregnenolone/PC micelles were mixed with the cholesterol/PC micelles such that the cholesterol concentration is at 0 mM or at 0.32 mM, and the radioactive pregnenolone concentration is at 1 μM (specific activity 20 Ci/mmol).

[2] = target: T2, histidine-tagged recombinant human ACAT2 (Homo sapiens, UniProt O75908); assay: Pregnenolone esterification in mixed micelles, ACAT2 as enzyme source; type: biochemical; settings: 1 μM [3H]-pregnenolone
T2 construct: made in house; partially purified on a nickel column
T2 sequence (O75908 1-522): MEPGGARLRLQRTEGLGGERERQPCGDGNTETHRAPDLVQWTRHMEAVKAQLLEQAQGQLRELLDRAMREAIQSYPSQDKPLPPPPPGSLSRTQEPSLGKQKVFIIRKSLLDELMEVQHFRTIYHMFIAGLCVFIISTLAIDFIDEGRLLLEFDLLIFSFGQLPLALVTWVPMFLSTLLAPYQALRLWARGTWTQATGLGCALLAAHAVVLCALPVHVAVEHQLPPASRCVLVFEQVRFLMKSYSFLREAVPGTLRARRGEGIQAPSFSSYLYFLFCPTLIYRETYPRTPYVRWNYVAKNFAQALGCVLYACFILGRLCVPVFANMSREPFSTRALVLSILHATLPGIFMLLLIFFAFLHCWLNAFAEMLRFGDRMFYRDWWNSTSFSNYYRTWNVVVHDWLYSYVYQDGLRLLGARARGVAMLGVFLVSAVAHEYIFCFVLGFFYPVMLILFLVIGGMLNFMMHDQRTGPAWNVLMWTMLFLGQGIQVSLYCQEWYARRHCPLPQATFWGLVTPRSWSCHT
Description: as §1, §2, §3

ACAT1 = target: T3, ACAT1 (Homo sapiens, UniProt P35610, M1L); assay: Cholesterol esterification in vitro ([3H]-oleoyl-CoA/BSA labeled substrate), cholesterol substrate saturation curve; type: biochemical; settings: pregnenolone added at 5 μM
T3 construct: hACAT-1 cDNA (nucleotide residues 1397-3046, a total of 550 amino acids); made in house; partially purified on a nickel column
T3 sequence (P35610 1-550 M1L): T1 sequence (P35610 1-550 M1L)
Description: (§6) ACAT1 was the enzyme source. [^3H]-oleoyl-CoA/BSA was the labeled substrate.

[3] = test system: amyloid precursor protein (APP); settings: animal models for AD; cited from earlier work
[4] = fed to animals; cited from earlier work
[5] = target: T4, HisACAT1/FLAG (recombinant hACAT1) (Homo sapiens, UniProt P35610, M1L); assay: Steady-state enzyme kinetics with fatty acyl-CoA as variable substrate, purified HisACAT1/FLAG; type: biochemical; settings: constant, saturating cholesterol in CHAPS/PC mixed micelles
T4 construct: hACAT1 contains 550 amino acids; made in house
T4 sequence (P35610 1-550 M1L): T1 sequence (P35610 1-550 M1L)
Procedure: (§4) To monitor enzyme activity during enzyme purification, the enzyme solubilized in the detergent CHAPS was assayed in preformed taurocholate/cholesterol/phosphatidylcholine (PC) mixed micelles as described previously (Chang, C. C. et al. 1998. J. Biol. Chem. 273:35132-35141), with a final concentration of taurocholate at 9.3 mM, PC at 11.2 mM, and cholesterol at 1.6 mM. The amount of mixed micelle solution was used to dilute the detergent presented in the enzyme preparation, so the final CHAPS/PC molar ratio was less than 0.4. The fatty acyl-CoA substrate saturation curves and cholesterol substrate saturation curves were performed under the same conditions as described previously (Chang, C. C. et al. 1998. supra).
(§5) Prior to conducting binding experiments, steady-state enzyme kinetic experiments were conducted using purified HisACAT1/FLAG as the enzyme source and either oleoyl- (18:1) CoA or stearoyl- (18:0) CoA as the variable substrate, at a constant, saturating level of cholesterol in the CHAPS/PC mixed micelles.

[6] = target: T4, HisACAT1/FLAG (recombinant hACAT1); assay: Ligand binding by change in intrinsic (tryptophan) fluorescence of HisACAT1/FLAG
Description: Fluorescence measurements were generated using an ISS PC1 photocounting fluorescence spectrophotometer (model 90095). This instrument has continuously reproducible slits ranging from 0.4 to 32 nm band-pass. The excitation slit width was set at 2 nm. The wavelength for excitation was set at 295 nm in order to minimize the contribution of tyrosine residues to the fluorescence. Purified HisACAT1/FLAG was concentrated using 30K AMICON centrifugal filters such that the final concentration of the protein was 100-200 ng/μL (1.5-3 μM). Purified protein was stored at −80° C. until used. Unless stated otherwise, the fluorescence measurements were performed at pH 7.8 with 50 mM potassium phosphate, 0.5M KCl, and 8.13 mM CHAPS. Sterol (cholesterol, epicholesterol, coprostanol, and epicoprostanol) was prepared as CHAPS/PC/sterol mixed micelles (with CHAPS at 8.13 mM, PC at 4 mM, and with varying concentrations of sterols as indicated) and stored at 20° C. in the dark until usage. The fatty acyl-CoAs were dissolved in 20 mM sodium acetate at pH 6.4 as a 2 mM stock and stored at −80° C. until used. Before the experiment started, all reagents were kept on ice in the dark. To begin the experiment, 50 μL of mixed micelles without or with sterols was added into a HELLMA microcuvette with 3 mm light path. Twenty-five microliters of ACAT1 protein (in 8.13 mM CHAPS and 0.5 M KCl) was then added and rapidly mixed. Fluorescence was monitored within 15 seconds of adding the enzyme. The sample compartment of the instrument was maintained at 20° C. The fluorescence emission spectrum was scanned in 2 minutes between 310 and 410 nm. The differences in fluorescence intensity at 10 intervals within 325-335 nm were averaged in order to calculate the ΔF value between the ligated protein vs that of the unligated protein.
Binding studies were subsequently conducted by monitoring the effect of increasing concentrations of oleoyl-CoA on the intrinsic fluorescence of HisACAT1/FLAG. […] However, the maximal change in the peak of the spectrum was much smaller (5% with respect to the unliganded protein). […] The data was analyzed for a simple bimolecular dissociation equilibrium using the PRISM program.
Binding experiments were subsequently performed by monitoring the effect of increasing concentrations of cholesterol, from 10 to 600 μM, on the intrinsic fluorescence of HisACAT1/FLAG. […] It was estimated that the cholesterol concentration that caused half-maximal spectral change was 35 μM. […] The changes in the intrinsic fluorescence of ACAT1 caused by cholesterol, epicholesterol, coprostanol, or epicoprostanol as the ligand were also compared.

[7] = substrate: CC(C)CCC[C@@H](C)[C@H]1CC[C@H]2[C@@H]3CC=C4C[C@@H](O)CC[C@]4(C)[C@H]3CC[C@]12C; assay: Cholesterol esterification in vitro ([3H]-oleoyl-CoA/BSA labeled substrate), cholesterol substrate saturation curve; type: biochemical, human; settings: other: ACAT1
Description: as §6

[8] = substrate: CCCCCCCC/C=C\CCCCCCCC(=O)SCCNC(=O)CCNC(=O)[C@H](O)C(C)(C)COP(=O)(O)OP(=O)(O)OC[C@H]1O[C@@H](n2cnc3c(N)ncnc32)[C@H](O)[C@@H]1OP(=O)(O)O; assay: Steady-state enzyme kinetics with fatty acyl-CoA as variable substrate, purified HisACAT1/FLAG; type: biochemical, human; settings: other: constant, saturating cholesterol in CHAPS/PC mixed micelles
Procedure: as §4, §5

[9] = substrate: CCCCCCCCCCCCCCCCCC(=O)SCCNC(=O)CCNC(=O)[C@H](O)C(C)(C)COP(=O)(O)OP(=O)(O)OC[C@H]1O[C@@H](n2cnc3c(N)ncnc32)[C@H](O)[C@@H]1OP(=O)(O)O; assay: as above; type: biochemical, human; settings: other: constant, saturating cholesterol in CHAPS/PC mixed micelles
Procedure: as §4, §5

[10] = presence of excess cholesterol (0.32 mM)

With `CC(=O)[C@H]1CC[C@H]2[C@@H]3CC=C4C[C@@H](O)CC[C@]4(C)[C@H]3CC[C@]12C` [pregnenolone] the “estimated Km, fold lower than that of cholesterol” value ([1]; ACAT1, cholesterol present) was 600 fold, the ACAT1 substrate activity ([1]; absence of cholesterol) was “very poor substrate” and the ACAT1 substrate activity [1, 10] was “much better substrate”. The Km ([1]; with cholesterol present in vitro (0.32 mM), read-out: apparent Km as ACAT1 substrate) was roughly 1.2 µM, the “Km as ACAT1 substrate” value ([1]; without cholesterol present in vitro) was “too high to be measurable” and the ACAT2 substrate activity ([2]; absence of cholesterol) was “very poor substrate”. For the same molecule, the ACAT2 substrate activity [2, 10] was “much better substrate” and the “inhibition of cholesterol esterification” value (ACAT1) was 10-15%.

In the case of `CC(C)c1cc(C(C)C)c(CC(=O)NS(=O)(=O)Oc2c(C(C)C)cccc2C(C)C)c(C(C)C)c1` [CI1011], the “mature/immature ratio of human APP” value [3] is listed as “decreased” and the VLDL-triglyceride content [4] is listed as “reduces the VLDL-triglyceride content”.

For `CCCCCCCC/C=C\CCCCCCCC(=O)SCCNC(=O)CCNC(=O)[C@H](O)C(C)(C)COP(=O)(O)OP(=O)(O)OC[C@H]1O[C@@H](n2cnc3c(N)ncnc32)[C@H](O)[C@@H]1OP(=O)(O)O` [oleoyl-CoA], the “Vmax, fold higher than for stearoyl-CoA” value [5] was 2.4 fold, the “maximal increase in fluorescence peak height with respect to unliganded ACAT1 protein” value ([6]; excitation 295 nm, peak 330 nm) was “approximately 32%” and the Kd ([6]; simple bimolecular dissociation equilibrium, PRISM, read-out: dissociation constant) was 1900 nM.

B1: ACAT1 (Homo sapiens; M1L) (protein)
chain: T1 sequence (P35610 1-550 M1L)
notes: hACAT-1 cDNA (nucleotide residues 1397-3046, a total of 550 amino acids); made in house; partially purified on a nickel column
Work on B1 yielded a Km [7] of 300 µM.

B2: HisACAT1/FLAG (recombinant hACAT1) (Homo sapiens; M1L) (protein)
chain: T1 sequence (P35610 1-550 M1L)
notes: hACAT1 contains 550 amino acids; made in house
Work on B2 yielded a Km [8] of 1.3 µM and a Km [9] of 6.4 µM.
